What follows are compounds tested on HCV replicon (assay: HCV replicon replication assay (NPTII ELISA)). Conditions: Hepatitis C virus, Huh-7, 72 h, inhibition of HCV replicon replication in Huh-7 HCV replicon-containing cells, three days incubation, NPT level by ELISA; read-out: EC50.
Format: cell-based, Hepatitis C virus (Huh-7 cells)
In short: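 Huh-7 cells carrying a Bartenschlager NPTII (neo) HCV replicon, treated 3 days at 37 °C with compound, generally 6 concentrations from 10 to 0.03 micromolar, in equal DMSO across wells. NPTII level, proportional to replication, read by capture ELISA on methanol:acetone-fixed cells; interferon alpha positive control; toxicity scored visually or by MTS.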

CCCCCCCCOc1ccc(N(C(=O)NCC(=O)O)c2nc(-c3cccnc3)cs2)cc1C(F)(F)F [Compound 165, 2-(3-(4-(octyloxy)-3-(trifluoromethyl)phenyl)-3-(4-(pyridin-3-yl)thiazol-2-yl)ureido)acetic acid] and CCCCCCCCOc1ccc(N(C(=O)NCC(=O)O)c2nc(-c3cccnc3)c(F)s2)cc1C(F)(F)F [Compound 166, 2-(3-(5-fluoro-4-(pyridin-3-yl)thiazol-2-yl)-3-(4-(octyloxy)-3-(trifluoromethyl)phenyl)ureido)acetic acid] cannot be ordered by EC50: < 1000 nM for the first, < 1000 nM for the second.

CCCCCCCCOc1ccc(N(C(=O)CN(C)C)c2nc(-c3cccnc3)c(F)s2)cc1C(F)(F)F [Compound 167, 2-(dimethylamino)-N-(5-fluoro-4-(pyridin-3-yl)thiazol-2-yl)-N-(4-(octyloxy)-3-(trifluoromethyl)phenyl)acetamide] and CCCCCCCCOc1ccc(N(C(=O)CO)c2nc(-c3cccnc3)c(F)s2)cc1C(F)(F)F [Compound 169, N-(5-fluoro-4-(pyridin-3-yl)thiazol-2-yl)-2-hydroxy-N-(4-(octyloxy)-3-(trifluoromethyl)phenyl)acetamide] cannot be ordered by EC50: < 1000 nM for the first, < 1000 nM for the second.

CCCCCCCCOc1ccc(N(C(=O)COC(C)=O)c2nc(-c3cccnc3)c(F)s2)cc1C(F)(F)F [Compound 168, 2-((5-fluoro-4-(pyridin-3-yl)thiazol-2-yl)(4-(octyloxy)-3-(trifluoromethyl)phenyl)amino)-2-oxoethyl acetate] and CCCCCCCCOc1ccc(N(C(C)=O)c2nc(-c3cccnc3)c(F)s2)cc1C(F)(F)F [Compound 177, N-(5-fluoro-4-(pyridin-3-yl)thiazol-2-yl)-N-(4-(octyloxy)-3-(trifluoromethyl)phenyl)acetamide] cannot be ordered by EC50: < 1000 nM for the first, < 1000 nM for the second.

CCCCCCCCc1ccc(N(C(=O)CN(C)C)c2nc(-c3cccnc3)c(F)s2)cc1C(F)(F)F [Compound 170, 2-(dimethylamino)-N-(5-fluoro-4-(pyridin-3-yl)thiazol-2-yl)-N-(4-octyl-3-(trifluoromethyl)phenyl)acetamide] and CCCCCCCCc1ccc(N(C(=O)OCCN(C)C)c2nc(-c3cccnc3)c(F)s2)cc1C(F)(F)F [Compound 179, 2-(dimethylamino)ethyl 5-fluoro-4-(pyridin-3-yl)thiazol-2-yl(4-octyl-3-(trifluoromethyl)phenyl)carbamate] cannot be ordered by EC50: < 1000 nM for the first, < 1000 nM for the second.

CCCCCCCCOc1ccc(N(C(=O)OCCOCCOCCOCCOC)c2nc(-c3cccnc3)c(F)s2)cc1C(F)(F)F [Compound 171, 2,5,8,11-tetraoxatridecan-13-yl 5-fluoro-4-(pyridin-3-yl)thiazol-2-yl(4-(octyloxy)-3-(trifluoromethyl)phenyl)carbamate] and CCCCCCCCOc1ccc(N(C(=O)COCCOCCOC)c2nc(-c3cccnc3)c(F)s2)cc1C(F)(F)F [Compound 172, N-(5-fluoro-4-(pyridin-3-yl)thiazol-2-yl)-2-(2-(2-methoxyethoxy)ethoxy)-N-(4-(octyloxy)-3-(trifluoromethyl)phenyl)acetamide] cannot be ordered by EC50: < 1000 nM for the first, < 1000 nM for the second.

CN(C)CC(=O)N(c1ccc(OCCCCc2cccs2)c(C(F)(F)F)c1)c1nc(-c2cccnc2)c(F)s1 [Compound 173, 2-(dimethylamino)-N-(5-fluoro-4-(pyridin-3-yl)thiazol-2-yl)-N-(4-(4-(thiophen-2-yl)butoxy)-3-(trifluoromethyl)phenyl)acetamide] and O=C(O)CCC(=O)N(c1ccc(OCCCCc2cccs2)c(C(F)(F)F)c1)c1nc(-c2cccnc2)c(F)s1 [Compound 174, 4-((5-fluoro-4-(pyridin-3-yl)thiazol-2-yl)(4-(4-(thiophen-2-yl)butoxy)-3-(trifluoromethyl)phenyl)amino)-4-oxobutanoic acid] cannot be ordered by EC50: < 1000 nM for the first, < 1000 nM for the second.

CCCCCCCCc1ccc(N(C(C)=O)c2nc(-c3cccnc3)c(F)s2)cc1C(F)(F)F [Compound 175, N-(5-fluoro-4-(pyridin-3-yl)thiazol-2-yl)-N-(4-octyl-3-(trifluoromethyl)phenyl)acetamide] and CCCCCCCCc1ccc(N(C(N)=O)c2nc(-c3cccnc3)c(F)s2)cc1C(F)(F)F [Compound 178, 1-(5-fluoro-4-(pyridin-3-yl)thiazol-2-yl)-1-(4-octyl-3-(trifluoromethyl)phenyl)urea] cannot be ordered by EC50: < 1000 nM for the first, < 1000 nM for the second.

First: CCCCCCCCOc1ccc(N(C(N)=O)c2nc(-c3cccnc3)c(F)s2)cc1C(F)(F)F [Compound 176, 1-(5-fluoro-4-(pyridin-3-yl)thiazol-2-yl)-1-(4-(octyloxy)-3-(trifluoromethyl)phenyl)urea]
Second: C/C=N/N(c1ccc(OCCCCCCCC)c(C(F)(F)F)c1)c1nc(-c2cccnc2)c(F)s1 [Compound 191, (E)-2-(2-ethylidene-1-(4-(octyloxy)-3-(trifluoromethyl)phenyl)hydrazinyl)-5-fluoro-4-(pyridin-3-yl)thiazolo]
The EC50 of the first is lower: < 1000 nM for the first, 1000 to 10000 nM for the second.

CCCCCCCCc1ccc(N(C(=O)C(N)C(C)C)c2nc(-c3cccnc3)c(F)s2)cc1C(F)(F)F (stereo not shown) [Compound 180, 2-amino-N-(5-fluoro-4-(pyridin-3-yl)thiazol-2-yl)-3-methyl-N-(4-octyl-3-(trifluoromethyl)phenyl)butanamide] and CCCCCCCCc1ccc(N(C(=O)OCOC(=O)C(N)C(C)C)c2nc(-c3cccnc3)c(F)s2)cc1C(F)(F)F (stereo not shown) [Compound 186, ((5-fluoro-4-(pyridin-3-yl)thiazol-2-yl)(4-octyl-3-(trifluoromethyl)phenyl)carbamoyloxy) methyl 2-amino-3-methylbutanoate] cannot be ordered by EC50: < 1000 nM for the first, < 1000 nM for the second.

CCCCCCCCc1ccc(N(C(=O)OCC[N+](C)(C)C)c2nc(-c3cccnc3)c(F)s2)cc1C(F)(F)F [Compound 181] and CCCCCCCCc1ccc(N(C(=O)OCCOP(=O)(O)O)c2nc(-c3cccnc3)c(F)s2)cc1C(F)(F)F [Compound 183, 2-(phosphonooxy)ethyl 5-fluoro-4-(pyridin-3-yl)thiazol-2-yl(4-octyl-3-(trifluoromethyl)phenyl)carbamate] cannot be ordered by EC50: < 1000 nM for the first, < 1000 nM for the second.

First: CCCCCCCCc1ccc(N(C(=O)CC(C)(C)c2c(C)cc(C)cc2OP(=O)(O)O)c2nc(-c3cccnc3)c(F)s2)cc1C(F)(F)F [Compound 182, 2-(4-((5-fluoro-4-(pyridin-3-yl)thiazol-2-yl)(4-octyl-3-(trifluoromethyl)phenyl)amino)-2-methyl-4-oxobutan-2-yl)-3,5-dimethylphenyl dihydrogen phosphate]
Second: CCCCCCCCc1ccc(N(C(=O)OCOP(=O)(O)O)c2nc(-c3cccnc3)c(F)s2)cc1C(F)(F)F [Compound 187, phosphonooxymethyl 5-fluoro-4-(pyridin-3-yl)thiazol-2-yl(4-octyl-3-(trifluoromethyl)phenyl)carbamate]
The EC50 of the first is higher: 1000 to 10000 nM for the first, < 1000 nM for the second.

CC/C=N/N(c1ccc(OCCCCCCCC)cc1)c1nc(-c2cccnc2)cs1 [Compound 188, (E)-2-(1-(4-(octyloxy)phenyl)-2-propylidenehydrazinyl)-4-(pyridin-3-yl)thiazolo] and C/C=N/N(c1ccc(OCCCCCCCC)cc1)c1nc(-c2cccnc2)cs1 [Compound 190, (E)-2-(2-ethylidene-1-(4-(octyloxy)phenyl)hydrazinyl)-4-(pyridin-3-yl)thiazolo] cannot be ordered by EC50: < 1000 nM for the first, < 1000 nM for the second.

C/C=N/N(c1ccc(OCCCCCCCC)c(C(F)(F)F)c1)c1nc(-c2cccnc2)cs1 [Compound 189, (E)-2-(2-ethylidene-1-(4-(octyloxy)-3-(trifluoromethyl)phenyl)hydrazinyl)-4-(pyridin-3-yl)thiazolo] and CCCCCCCCOc1ccc(N(C(C)=O)c2ncc(-c3cccnc3)s2)cc1C(F)(F)F [Compound 194, N-(4-(octyloxy)-3-(trifluoromethyl)phenyl)-N-(5-(pyridin-3-yl)thiazol-2-yl)acetamide] cannot be ordered by EC50: < 1000 nM for the first, < 1000 nM for the second.

First: CCCCCCCCOc1ccc(N(COC(=O)C(C)(C)C)c2nc(-c3cccnc3)c(F)s2)cc1C(F)(F)F [Compound 192, ((5-fluoro-4-(pyridin-3-yl)thiazol-2-yl)(4-(octyloxy)-3-(trifluoromethyl)phenyl)amino)methyl pivalate]
Second: NCCN(c1ccc(OCCCCc2cccs2)c(C(F)(F)F)c1)c1nc(-c2cccnc2)c(F)s1 [Compound 193, N1-(5-fluoro-4-(pyridin-3-yl)thiazol-2-yl)-N1-(4-(4-(thiophen-2-yl)butoxy)-3-(trifluoromethyl)phenyl)ethane-1,2-diamine]
The EC50 of the first is lower: < 1000 nM for the first, 1000 to 10000 nM for the second.
